Test results published in patent US12617752B2, “Rapidly metabolized lipid compound” (Beijing Jitai Life Sciences Ltd, priority 2023, dated 2026).

What was measured:
C57BL/6 mice = experiment: In vivo delivery of luciferase mRNA lipid nanoparticles in mice (bioluminescence imaging); conditions: intravenous, single dose 0.5 mg/kg luciferase mRNA
Procedure: The delivery effect and safety of nanoparticles encapsulated with luciferase mRNA (Trilink, L-7202) in mice were evaluated. The test mice were SPF-grade C57BL/6 mice, female, 6-8 weeks old, weighing 18-22 g, and were purchased from SPF (Beijing) Biotechnology Co., Ltd. All animals were acclimatized for more than 7 days prior to the experiment, and had free access to food and water during the experiment. The conditions include alternating light and dark for 12/12 h, the indoor temperature of 20-26° C. and the humidity of 40-70%. The mice were randomly grouped. The lipid nanoparticles encapsulated with luciferase mRNA prepared above were injected into mice by intravenous administration at a single dose of 0.5 mg/kg mRNA, and the mice were subjected to in vivo bioluminescence assay using a Small Animal In Vivo Imaging System (IVIS LUMINA III, purchased from PerkinElmer) at 6 h after administration. The assay was performed as follows: D-luciferin solution was prepared in saline at a concentration of 15 mg/mL, and each mouse was given the substrate by intraperitoneal injection. At ten minutes after administration of the substrate, the mice were anesthetized in an anesthesia chamber with isoflurane at a concentration of 2.5%. The anesthetized mice were placed in IVIS for fluorescence imaging, and data acquisition and analysis were performed on the concentrated distribution area of fluorescence.
The in vivo delivery efficiency of lipid nanoparticle carriers was expressed as the mean values of fluorescence intensity and total photon count in different animals within the same subject group, as shown in Table 5-Table 11. Higher values of fluorescence intensity and total photon count indicate higher in vivo delivery efficiency of this mRNA fragment by lipid nanoparticles. The lipid nanoparticles containing the cationic lipids of the present disclosure have good in vivo delivery efficiency.

[1] = Particle size and PDI of lipid nanoparticles by dynamic light scattering; assay type: physicochemical; conditions: lipid nanoparticles with luciferase mRNA; ionizable lipid/cholesterol/DSPC/DMG-PEG2000 50/38.5/10/1.5 mol%
Procedure: (§1) Lipid nanoparticles were prepared by (1) dissolving and mixing ionizable lipid compounds, cholesterol, phospholipids and polyethylene glycolated lipids in ethanol at (molar percentages) 50%, 38.5%, 10% and 1.5%, respectively; (2) dissolving the mRNA active ingredient in 25 mM sodium acetate solution (pH=4.5); (3) using an automated high-throughput microfluidic system to mix the organic phase containing the lipid mixture and the aqueous phase containing the mRNA component in the flow ratio range of 1:1 to 1:4 at a mixing speed of 10 mL/min to 18 mL/min; (4) the prepared lipid nanoparticles (N/P ratio=6) were diluted with phosphate buffer solution and the nanoparticle solutions were ultrafiltered to the original preparation volume using ultrafiltration tubes (purchased from Millipore) with a cut-off molecular weight of 30 kDa; and (5) the obtained nanoparticles were filtered through a sterile 0.2 μm filter membrane and then stored in a sealed glass vial at low temperature.
(§2) The particle size and particle size dispersity index (PDI) of the prepared lipid nanoparticles were measured using a Zetasizer Pro (purchased from Malvern Instruments Ltd) and a DynaPro NanoStar (purchased from Wyatt) dynamic light scattering instrument. The degree of RNA encapsulation by lipid nanoparticles was characterized by the Encapsulation Efficiency %, which reflects the degree of binding of lipid nanoparticles to RNA fragments. This parameter was measured by the method of Quant-it™ RiboGreen RNA Assay (purchased from Invitrogen). Lipid nanoparticle samples were diluted in TE buffer (10 mM Tris-HCl, 1 mM EDTA, pH=7.5). A portion of the sample solution was removed, to which 0.5% Triton (Triton X-100) was added, and then allowed to stand at 37° C. for 30 minutes. Immediately after the addition of RIBOGREEN® reaction solution, the fluorescence values were read on a Varioskan LUX multifunctional microplate reader (purchased from Thermofisher) at 485 nm for absorption and 528 nm for emission to give the encapsulation efficiency values.

[2] = Encapsulation efficiency of lipid nanoparticles (Quant-it RiboGreen RNA Assay); assay type: physicochemical; conditions: lipid nanoparticles with luciferase mRNA
Procedure: as §1, §2

SMILES | Total photon count in vivo at 6 hours after administration (Total Flux) (C57BL/6 mice) | Particle size (nm) [1] [nm] | Particle-size distribution (PDI) [1] | Encapsulation efficiency (%) [2] [%]
CCCCCCCCCC(=O)OCC1(CCCCCN(CCCCO)CCCCCCCC(=O)OC(CCCCCCCCC)CCCCCCCCC)CC1 [24b] | 7.06E+10 | 83.05 | 0.019 | 94.52
CCCCCCCCCOC(=O)CCCCC(C)(C)CCN(CCO)CCCCCCCC(=O)OC(CCCCCCCC)CCCCCCCC [25a] | 1.33E+11 | 86.99 | 0.051 | 95.62
CCCCCCCCCC(=O)OCCCCCCCN(CCO)CCCCC(C)(C)COC(=O)OCC(CCCCCCC)CCCCCCC [25b] | 1.11E+11 | 94.39 | 0.15 | 95.59
CCCCCCCCCOC(=O)CCCCC(C)(C)CCN(CCO)CCCCCCCC(=O)OCC(CCCCCCC)CCCCCCC [26a] | 1.11E+11 | 106.37 | 0.050 | 91.18
CCCCCCCCCOC(=O)CCCCC(C)(C)CCN(CCO)CCCCCCCC(=O)OCCC(CCCCCC)CCCCCC [27a] | 4.31E+10 | 136.43 | 0.016 | 93.52
CCCCCCCCCCOC(=O)OCCCCCCN(CCO)CCCCCC(C)(C)COC(=O)CC(CCCCCCC)CCCCCCC [27b] | 5.59E+10 | 91.10 | 0.18 | 97.83
CCCCCCCCCCOC(=O)CCCC(C)(C)CCN(CCO)CCCCCCCC(=O)OCCC(CCCCCC)CCCCCC [28a] | 4.30E+10 | 110.30 | 0.018 | 93.90
CCCCCCCCCCCOC(=O)OCCCCCN(CCO)CCCCCC(C)(C)COC(=O)CC(CCCCCCC)CCCCCCC [28b] | 4.18E+10 | 94.55 | 0.16 | 96.19
CCCCCCCCCCOC(=O)CCC(C)(C)CCCCN(CCCCO)CCCCCCCC(=O)OC(CCCCCCCCC)CCCCCCCCC [29a] | 5.46E+10 | 88.59 | 0.012 | 97.30
CCCCCCCCCOC(=O)OCCCCCCCN(CCO)CCCCCC(C)(C)COC(=O)CC(CCCCCCC)CCCCCCC [29b] | 3.52E+10 | 112.43 | 0.10 | 96.28
CCCCCCCCCCOC(=O)OCCCCCCN(CCCCO)CCCCCC(C)(C)COC(=O)CC(CCCCCCC)CCCCCCC [30b] | 4.03E+10 | 115.83 | 0.08 | 95.02
CCCCCCCCCCOC(=O)OCCCCCN(CCO)CCCCCCC(C)(C)C(=O)OC(CCCCCCCC)CCCCCCCC [31a] | 7.04E+10 | 115.56 | 0.11 | 86.08
CCCCCCCCCCCOC(=O)OCCCCCN(CCCCO)CCCCCC(C)(C)COC(=O)CC(CCCCCCC)CCCCCCC [31b] | 1.87E+10 | 118.73 | 0.07 | 95.73
CCCCCCCCCOC(=O)OCCCCCCN(CCCO)CCCCCCC(C)(C)C(=O)OC(CCCCCCCC)CCCCCCCC [32a] | 1.24E+10 | 129.00 | 0.10 | 83.51
CCCCCCCCCOC(=O)OCCCCCCCN(CCCCO)CCCCCC(C)(C)COC(=O)CC(CCCCCCC)CCCCCCC [32b] | 3.52E+10 | 116.50 | 0.16 | 95.31
CCCCCCCCCOC(=O)OCCCCCCN(CCO)CCCCCCC(C)(C)C(=O)OCC(CCCCCCC)CCCCCCC [33a] | 1.09E+11 | 111.60 | 0.17 | 86.98
CCCCCCCCCC(=O)OCC(C)(C)CCCCCN(CCO)CCCCCCOC(=O)OCC(CCCCCCCC)CCCCCCCC [33b] | 8.23E+10 | 85.80 | 0.15 | 94.85
CCCCCCCCCOC(=O)OCCCCCCN(CCO)CCCCCCC(C)(C)C(=O)OCCC(CCCCCC)CCCCCC [34a] | 3.14E+10 | 116.67 | 0.12 | 95.73
CCCCCCCCCC(=O)OCC1(CCCCCN(CCO)CCCCCCOC(=O)OCC(CCCCCCCC)CCCCCCCC)CC1 [34b] | 2.78E+10 | 85.20 | 0.19 | 97.61
CCCCCCCCCOC(=O)OCCCCCCN(CCO)CCCCCCC(C)(C)C(=O)OCCCC(CCCCC)CCCCC [35a] | 3.01E+10 | 126.63 | 0.22 | 95.00
CCCCCCCCCC(=O)OCC(C)(C)CCCCCN(CCCCO)CCCCCCOC(=O)OCC(CCCCCCCC)CCCCCCCC [35b] | 3.77E+10 | 100.40 | 0.21 | 96.35
CCCCCCCCCCCOC(=O)OCCCCN(CCO)CCCCCCC(C)(C)C(=O)OC(CCCCCCCC)CCCCCCCC [36a] | 2.51E+10 | 104.80 | 0.15 | 92.41
CCCCCCCCCC(=O)OCC1(CCCCCN(CCCCO)CCCCCCOC(=O)OCC(CCCCCCCC)CCCCCCCC)CC1 [36b] | 3.84E+10 | 112.50 | 0.19 | 96.10
CCCCCCCCCCCOC(=O)OCCCCN(CCO)CCCCCCC(C)(C)C(=O)OCC(CCCCCCC)CCCCCCC [37a] | 3.54E+10 | 110.67 | 0.15 | 92.14
CCCCCCCC(CCCCCCC)CCOC(=O)OCCCCCCN(CCO)CCCCCC(C)(C)COC(=O)CCC(CCCCCC)CCCCCC [37b] | 3.72E+10 | 83.72 | 0.16 | 95.15
CCCCCCCCCCCOC(=O)OCCCCN(CCO)CCCCCCC(C)(C)C(=O)OCCC(CCCCCC)CCCCCC [38a] | 1.39E+10 | 114.03 | 0.13 | 94.51
CCCCCCCCCC(=O)OCC(C)(C)CCCCCN(CCCCCCCC(=O)OC(CCCCCCCC)CCCCCCCC)C(=O)SCCCCN(C)C [38b] | 1.49E+10 | 102.50 | 0.11 | 98.29
